Broadly, the IC50 is the point on the concentration scale where inhibition reaches its midpoint. High values mean a need for much substance, low ones inhibition by little substance.

“Also recorded” adds a separate entry of the source. Where only a bound is given, the exact number is not on record here.

The test system of data set [1] is HeLa (cervical carcinoma). The experiment in a line: MTT proliferation assay, HeLa. Type of data set: cell-based. Conditions: Homo sapiens, 72 h. The method, boiled down: (§1)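 Cells in DMEM with 10% FBS were seeded at 5000 per well, treated 24 h later with compound from 0.01 μM to 100 μM, and incubated 72 h at 37 °C, 5% CO2. MTT was added for 3 h, formazan dissolved in DMSO, and absorbance read at 570 nm; IC50 came from regression of growth curves.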
For orientation: Tetrazolium dyes change colour on reduction, which living cells bring about.

Data set [2] has as its system CFPAC-1 (ductal pancreatic adenocarcinoma). Put plainly: MTT proliferation assay, CFPAC-1. Type of data set: cell-based. Conditions: Homo sapiens, 72 h. The method, boiled down:
as §1

The test system of data set [3] is hydroxylated HIF-1α (Pro564). Put plainly: Western blot of hydroxy-HIF-1α in MCF-7 cells. Conditions: MCF-7, 6.72 µM, 48 h. Type of data set: cell-based, Human. The protocol: Protein lysates were prepared using RIPA buffer containing cocktail of protease and phosphatase inhibitors (Roche, Basel, Switzerland). Amounts of 50 μg of proteins were resolved on 12% SDS polyacrylamide gels using the Mini-protean cell (Bio-Rad, Hercules, CA, USA). The membranes were incubated with primary antibodies raised against hydroxy-HIF-1α (Pro564) (HIF-1α, 1:1000, rabbit mAb, Cell Signaling Technology, NL) and NOS2 (1:500, mouse mAb, SantaCruzBiotechnology, Dallas, TX, USA) at 4 °C overnight. A secondary antibody linked to anti-mouse (1:1000, Dako, Santa Clara, CA, USA) was used. The signal was visualized by the Western Lightening Chemiluminescence Reagent Plus Kit (Perkin Elmer, Massachusetts, MA, USA) on the ImageQuant LAS500 (GE Healthcare, Chicago, IL, USA), and as a loading control, α-tubulin (1:1000, mouse mAb, Sigma, Sigma Aldrich, Darmstadt, Germany) was used. The signal intensities of bands were normalized and compared in Quantity One software (Bio-Rad, Hercules, CA, USA). Differences in protein relative expression status obtained by western blot analysis were analyzed by two-tailed, paired t-tests (p < 0.05) in the Statistica software package (v.12.0).
For orientation: A western blot detects proteins with antibodies after separation by electrophoresis.

Data set [4] has as its system A549 (lung adenocarcinoma). The experiment in a line: MTT proliferation assay, A549. Type of data set: cell-based. Conditions: Homo sapiens, 72 h. The method, boiled down: as §1
The subject of data set [5] is HCT-116 (colorectal carcinoma). The experiment in a line: MTT proliferation assay, HCT-116. Type of data set: cell-based. Conditions: Homo sapiens, 72 h. The method in brief:
as §1

The test system of data set [6] is HFF-1 (foreskin fibroblasts). Put plainly: MTT proliferation assay, HFF-1. Type of data set: cell-based. Conditions: Homo sapiens, 72 h, normal foreskin fibroblasts. The method, boiled down:
as §1

The next data set relates to HFF-1 cells. The experiment in a line: Seahorse XF Cell Mito Stress Test, HFF-1. Type of data set: cell-based, Human. Conditions: HFF-1, 24 h. The protocol:
The Seahorse XF Cell Mito Stress Test was used for measurements of mitochondrial respiration by direct assessment of the oxygen consumption rate (OCR), of treated and untreated cells on the Seahorse XFe24 Analyzer, (Agilent, Santa Clara, CA, USA). Key parameters of the mitochondrial function were measured by direct assessment of the OCR, by use of the Mito Stress Test (Agilent, Agilent, Santa Clara, CA, USA). The Mito Stress Test uses modulators of respiration that target components of the electron transport chain in the mitochondria. The compounds added to the reaction were: oligomycin, mitochondrial oxidative phosphorylation uncoupler carbonyl cyanide-4-(trifluoromethoxy)phenylhydrazone (FCCP), and the mix of rotenone and antymicin A. These were directly injected to the cell growth medium containing cells treated with selected L-ASA derivatives to determine the production of ATP, respiration at maximal level, and the non-mitochondrial respiration. Measured parameters were used for calculation of the proton leakage, spare respiratory capacity, and basal respiration. The assay was performed according to the manufacturer’s instructions (SeaHorse—Mito Stress Test: Agilent, Santa Clara, CA, USA). Briefly, selected compound 4e was tested due to its selective antiproliferative effect on MCF-7 cells. MCF-7 cells were treated for 24 h with compound 4e at 3 different concentrations (at 12.72 µM, 25.44 µM and 50.88 µM) while the cells HFF-1 were treated for 24 h with compound 4e at concentrations 50 µM, 100 µM, and 200 µM. […] The experiment was performed with biological duplicates.

The subject of the next data set is WI-38 (lung fibroblasts). The experiment in a line: MTT proliferation assay, WI-38. Conditions: Homo sapiens, 72 h, normal lung fibroblasts. Type of data set: cell-based. The method in brief:
as §1

On the set-up of data set [7]: method as in PMID 20925411. Conditions: experimental acid dissociation constant; cited from earlier work.

For the compound `O=C1O[C@H]([C@@H](O)Cn2cc(-c3ccc(Br)cc3)nn2)C(O)=C1O` [Compound 4e, 6-[4-(4-bromophenyl)-1,2,3-triazol-1-yl]-6-deoxy-L-ascorbic acid], the IC50 is more than 100 µM in data set [1]; more than 100 µM in data set [2]; 25.4 µM in data set [4]; more than 100 µM in [5]; more than 100 µM in data set [6]; 73.9 µM with WI-38 (lung fibroblasts). For the same compound, the “hydroxylated HIF-1α (Pro564) expression” value in data set [3] is given as “statistically significant increase; also recorded: strongly increased”. Also, the “basal cell respiration and ATP production” value with HFF-1 cells is “did not affect the basal cell respiration or ATP production; also recorded: did not affect the basal cell respiration and ATP production”. The “cellular metabolism and mitochondrial activity” value in the data set with HFF-1 cells (100 µM) is listed as “slightly positive effect”.

Consider `O=C1O[C@H]([C@@H](O)CO)C(O)=C1O` [L-ASA, L-ascorbic acid], for which, in data set [7], the “pKa,2 (experimental)” value is 11.4. The IC50 in [1], in data set [2], in data set [4], in data set [5] and in data set [6] was more than 100 µM throughout. Also, the “decrease of basal cell respiration and ATP production, switch towards non-mitochondrial respiration” value in the data set with HFF-1 cells (higher concentrations) is on record as “this effect was not observed”.
